# Experimental data published in publication PMC2831140 (Biochemistry, 2010).
# Biological target: T1, TbQSOX (Trypanosoma brucei, UniProt Q585M6)
# T1 sequence (Q585M6 20-485): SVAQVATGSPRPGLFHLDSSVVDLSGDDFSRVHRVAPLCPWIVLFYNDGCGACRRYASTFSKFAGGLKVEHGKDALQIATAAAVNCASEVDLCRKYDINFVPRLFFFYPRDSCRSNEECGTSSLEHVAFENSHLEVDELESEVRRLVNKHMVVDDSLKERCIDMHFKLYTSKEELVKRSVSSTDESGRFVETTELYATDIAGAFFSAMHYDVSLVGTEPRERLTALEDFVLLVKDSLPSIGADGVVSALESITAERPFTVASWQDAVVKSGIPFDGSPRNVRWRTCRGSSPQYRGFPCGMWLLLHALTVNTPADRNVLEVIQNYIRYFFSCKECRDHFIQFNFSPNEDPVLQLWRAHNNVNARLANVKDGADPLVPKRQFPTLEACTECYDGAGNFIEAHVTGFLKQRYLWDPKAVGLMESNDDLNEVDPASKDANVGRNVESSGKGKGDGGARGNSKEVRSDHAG
# Assay: UV/Vis spectrum of bound flavin in purified protein
# Assay type: binding
# Details: 50 mM phosphate pH 7.5, 1 mM EDTA; prosthetic group in Erv/ALR domain
structure (smiles),measurement,value
Cc1cc2nc3c(=O)[nH]c(=O)nc-3n(C[C@H](O)[C@H](O)[C@H](O)COP(=O)(O)OP(=O)(O)OC[C@H]3O[C@@H](n4cnc5c(N)ncnc54)[C@H](O)[C@@H]3O)c2cc1C [FAD],UV/Vis spectrum of bound flavin in purified protein,"found to be a stable, monomeric, FAD-containing protein"
